Experimental data: patent US8962689B2, “Medium chain dicarboxylic acids, their derivates and metabolic disorders” (Nestec S.A., priority 2008, dated 2015)

How the values were obtained:
Format in all cases: in vivo, human
healthy subjects = assay: Cross-over single-blind pilot study, mixed formula meal with sebacic acid (C10), healthy subjects; details: for Glucose AUC / Insulin AUC / Total ISR (insulin secretion rate): 0-420 minutes, mean
Procedure: (§1) Ingestion of the different meals was performed at 100 min.
(§2) The acute effects of oral ingestion of sebacic acid on postprandial glycemia, hepatic gluconeogenesis and glycogenolysis were tested in T2D subjects and healthy volunteers during ingestion of a mixed meal at breakfast.
(§3) Type 2 diabetic patients and healthy subjects were matched for gender distribution, age, and body mass index as reported in the following table 1:
(§4) The subjects ingested the following formula meal
(§5) No C10 group (control group): 50% CHO, 15% protein and 35% lipids plus water
(§6) 10 g C10 group: 50% CHO, 15% protein and 35% lipids plus 10 g of C10 plus water

[1] = Time course of plasma sebacate in T2D subjects
Procedure: FIG. 5 reports the time course of plasma sebacate in T2D subjects.
FIG. 5 reports the time course of plasma sebacate in T2D subjects. […] Another difference was that in diabetics the two curves (10 g vs. 23 g) were overlapped up to 320 minutes, and then the concentration of C10 declined slower in the 23 g C10 fed patients compared with 10 g of C10.

[2] = Time course of plasma sebacate in healthy subjects
Procedure: FIG. 4 reports the time course of plasma sebacate in healthy subjects.
FIG. 4 reports the time course of plasma sebacate in healthy subjects. The peak was reached after 320 minutes from the beginning of the experiment, i.e. […] after the ingestion of the meal enriched with C10. C10 peaked later (delay of 40 minutes) after 23 g C10 ingestion.

T2D subjects = assay: Cross-over single-blind pilot study, mixed formula meal with sebacic acid (C10), T2D subjects; details: for EGP (endogenous glucose production) / Gluconeogenesis / Glucose clearance / Total Ra (rate of appearance of deuterated glucose) / Glucose AUC / Insulin AUC / Total ISR (insulin secretion rate): type 2 diabetic subjects; for Glucose AUC / Insulin AUC / Total ISR (insulin secretion rate): 0-420 minutes, mean
Procedure: as §1, §2, §3, §4, §5, §6

[3] = healthy subjects, 10 g C10 meal
[4] = healthy subjects, 23 g C10 meal
[5] = T2D subjects (n=10), 10 g meal, vs control meal
[6] = T2D subjects (n=10), 23 g C10 DA meal, vs control meal

O=C(O)CCCCCCCCC(=O)O [C10, sebacic acid]
Change in postprandial insulinemia AUC (healthy subjects; healthy subjects (n=10), 23 g sebacic acid, vs control meal): −38%
EGP (endogenous glucose production) (healthy subjects; [3]): 6.30 ± 2.45 μmol · min^−1 · kgffm^−1
Gluconeogenesis (healthy subjects; [3]): 31.28 ± 5.07%
Glucose clearance (healthy subjects; [3]): 2.73 ± 0.24 mL/min/kg
Total Ra (rate of appearance of deuterated glucose) (healthy subjects; [3]): 20.60 ± 2.88 μmol · min^−1 · kgffm^−1
Glucose AUC (healthy subjects; [3]): 37400 mg·min/dL
Insulin AUC (healthy subjects; [3]): 51100 pM·min
Total ISR (insulin secretion rate) (healthy subjects; [3]): 101.15 nmol
EGP (endogenous glucose production) (healthy subjects; [4]): 6.172 ± 0.68 μmol · min^−1 · kgffm^−1
Gluconeogenesis (healthy subjects; [4]): 31.20 ± 3.63%
Glucose clearance (healthy subjects; [4]): 2.74 ± 0.26 mL/min/kg
Total Ra (rate of appearance of deuterated glucose) (healthy subjects; [4]): 21.20 ± 1.30 μmol · min^−1 · kgffm^−1
Glucose AUC (healthy subjects; [4]): 38100 mg·min/dL
Insulin AUC (healthy subjects; [4]): 39200 pM·min
Total ISR (insulin secretion rate) (healthy subjects; [4]): 93.60 nmol
Glucose clearance, result in words (healthy subjects; healthy subjects, C10 ingestion): significantly improved
ISR, result in words (healthy subjects; healthy subjects, meal with lipids substituted with 23 g C10): significantly reduced
Plasma C10 peak times compared with controls ([1]; T2D subjects): the peak times were maintained
Plasma C10 concentration relative to values reached in controls ([1]; T2D subjects vs healthy controls): about 1.5 times
Delay of plasma C10 peak after 23 g C10 ingestion ([2]; 23 g C10 ingestion): 40 min
Time of plasma sebacate peak after the ingestion of the meal ([2]; oral, meal enriched with C10): 200 min
Time of plasma sebacate peak from the beginning of the experiment ([2]; oral, meal enriched with C10): 320 min
Change in postprandial Endogenous Glucose Production (T2D subjects; [5]): −10%
Change in postprandial Gluconeogenesis (%) (T2D subjects; [5]): −2.1%
Change in postprandial glycemia area under the curve (AUC) (T2D subjects; [5]): −17%
Increase in postprandial glucose clearance (T2D subjects; [5]): +12.6%
Change in postprandial Endogenous Glucose Production (T2D subjects; [6]): −9%
Change in postprandial Gluconeogenesis (%) (T2D subjects; [6]): −2.3%
Change in postprandial glycemia area under the curve (AUC) (T2D subjects; [6]): −16%
Change in postprandial insulin secretion rate (T2D subjects; [6]): −35%
Increase in postprandial glucose clearance (T2D subjects; [6]): +8.2%
Glucose clearance, result in words (T2D subjects; diabetic patients, C10 ingestion): significantly improved
GNG, result in words (T2D subjects; diabetic patients, both C10 enriched meals): significantly reduced
Glucose AUC, result in words (T2D subjects; diabetic patients, meal containing 10 g of C10): significantly lower
ISR, result in words (T2D subjects; diabetic patients, meal with lipids substituted with 23 g C10): significantly reduced
EGP (endogenous glucose production) (T2D subjects; 10 g C10 meal): 7.81 ± 3.27 μmol · min^−1 · kgffm^−1
Gluconeogenesis (T2D subjects; 10 g C10 meal): 40.862 ± 3.62 %
Glucose clearance (T2D subjects; 10 g C10 meal): 1.76 ± 0.13 mL/min/kg
Total Ra (rate of appearance of deuterated glucose) (T2D subjects; 10 g C10 meal): 19.60 ± 2.41 μmol · min^−1 · kgffm^−1
Glucose AUC (T2D subjects; 10 g C10 meal): 43700 mg·min/dL
Insulin AUC (T2D subjects; 10 g C10 meal): 33500 pM·min
Total ISR (insulin secretion rate) (T2D subjects; 10 g C10 meal): 213.69 nmol
EGP (endogenous glucose production) (T2D subjects; 23 g C10 meal): 7.00 ± 2.47 μmol · min^−1 · kgffm^−1
Gluconeogenesis (T2D subjects; 23 g C10 meal): 40.72 ± 4.00 %
Glucose clearance (T2D subjects; 23 g C10 meal): 1.71 ± 0.21 mL/min/kg
Total Ra (rate of appearance of deuterated glucose) (T2D subjects; 23 g C10 meal): 20.32 ± 2.19 μmol · min^−1 · kgffm^−1
Glucose AUC (T2D subjects; 23 g C10 meal): 44200 mg·min/dL
Insulin AUC (T2D subjects; 23 g C10 meal): 29500 pM·min
Total ISR (insulin secretion rate) (T2D subjects; 23 g C10 meal): 142.27 nmol
EGP, result in words (T2D subjects; type 2 diabetics, C10 enriched meals compared with the standard meal): significantly reduced
